Tested on: male adult Sprague Dawley rats
Assay: Sleep-wake organization in rats, polysomnographic recording (EEG, EOG, EMG, body movement) for 16 hours after acute i.p. administration
Assay type: in vivo, rat
Conditions: for Duration (min) Active wake / Duration (min) Deep sleep / Duration (min) Light sleep / Duration (min) Passive wake / Duration (min) REM sleep / Duration (min) intermediate stage / ISWS/TST (%) / Latency (min) ISWS / Latency (min) REM sleep / Latency (min) dSWS / REMS/TST (%) / Shifts (number) Shift from ISWS to AW / Shifts (number) Shift from ISWS to PW / Shifts (number) Shift from REMS to AW / Shifts (number) Shift from REMS to PW / Shifts (number) Shift from dSWS to AW / Shifts (number) Shift from dSWS to PW / Total sleep time TST / dSWS/TST (%): 16 hours recording period; for change in mean duration of REM sleep stage / change in number of REM sleep epochs / change in number of active wake epochs / change in number of deep sleep epochs / change in number of light sleep epochs / change in total time spent in REM sleep / change in total time spent in active wakefulness / change in total time spent in deep (rebound) sleep / change in total time spent in light sleep / change in mean duration of deep sleep stage: 16 hours recording; for change in total time spent in REM sleep / change in total time spent in active wakefulness / change in total time spent in deep (rebound) sleep / change in total time spent in light sleep: vs vehicle

## CC(N)Cc1ccccc1 (stereo not shown) [Amphetamine, amphetamine]
rats, 1 mg/kg
  period of enhanced active wakefulness: 3 h
  period of reduction in light, deep and REM sleep durations: 3 h
  change in mean duration of REM sleep stage: −16%
  change in number of REM sleep epochs: −4%
  change in number of active wake epochs: +27%
  change in number of deep sleep epochs: +73%
  change in number of light sleep epochs: −35%
  change in total time spent in REM sleep: −4%
  change in total time spent in active wakefulness: +27%
  change in total time spent in deep (rebound) sleep: +73%
  change in total time spent in light sleep: −35%
rats, 1 mg/kg i.p.
  Duration (min) Active wake: 382.4 min
  Duration (min) Deep sleep: 188.0 min
  Duration (min) Light sleep: 242.7 min
  Duration (min) Passive wake: 50.0 min
  Duration (min) REM sleep: 88.6 min
  Duration (min) intermediate stage: 4.0 min
  ISWS/TST (%): 45.1 ± 5.3 %
  Latency (min) ISWS: 140.6 ± 13.4 min
  Latency (min) REM sleep: 208.6 ± 14.4 min
  Latency (min) dSWS: 161.7 ± 5.3 min
  REMS/TST (%): 16.9 ± 0.9%
  Shifts (number) Shift from ISWS to AW: 198.8 number
  Shifts (number) Shift from ISWS to PW: 64.4 number
  Shifts (number) Shift from REMS to AW: 66.5 number
  Shifts (number) Shift from REMS to PW: 5.8 number
  Shifts (number) Shift from dSWS to AW: 11.7 number
  Shifts (number) Shift from dSWS to PW: 37.7 number
  Total sleep time TST: 523.3 ± 25.3 min
  dSWS/TST (%): 36.6 ± 5.7 %
rats, 3 mg/kg
  period of enhanced active wakefulness: 4 h
  period of reduction in light, deep and REM sleep durations: 4 h
  change in mean duration of REM sleep stage: −23%
  change in mean duration of deep sleep stage: −19%
  change in number of REM sleep epochs: −22%
  change in number of active wake epochs: +47%
  change in number of deep sleep epochs: +91%
  change in number of light sleep epochs: −49%
  change in total time spent in REM sleep: −22%
  change in total time spent in active wakefulness: +47%
  change in total time spent in deep (rebound) sleep: +91%
  change in total time spent in light sleep: −49%
rats, 3 mg/kg i.p.
  Duration (min) Active wake: 441.8 min
  Duration (min) Deep sleep: 207.6 min
  Duration (min) Light sleep: 187.9 min
  Duration (min) Passive wake: 43.5 min
  Duration (min) REM sleep: 71.4 min
  Duration (min) intermediate stage: 4.0 min
  ISWS/TST (%): 38.3 ± 3.4 %
  Latency (min) ISWS: 228.2 ± 25.0 min
  Latency (min) REM sleep: 338.6 ± 24.3 min
  Latency (min) dSWS: 242.0 ± 19.4 min
  REMS/TST (%): 14.7 ± 0.7%
  Shifts (number) Shift from ISWS to AW: 178.7 number
  Shifts (number) Shift from ISWS to PW: 62.4 number
  Shifts (number) Shift from REMS to AW: 59.3 number
  Shifts (number) Shift from REMS to PW: 3.3 number
  Shifts (number) Shift from dSWS to AW: 14.8 number
  Shifts (number) Shift from dSWS to PW: 26.6 number
  Total sleep time TST: 460.9 ± 12.0 min
  dSWS/TST (%): 46.0 ± 3.0 %
rats, 10 mg/kg
  period of enhanced active wakefulness: 6 h
  period of reduction in light, deep and REM sleep durations: 6 h
  change in mean duration of REM sleep stage: −36%
  change in mean duration of deep sleep stage: −30%
  change in number of REM sleep epochs: −41%
  change in number of active wake epochs: +66%
  change in number of deep sleep epochs: +66%
  change in number of light sleep epochs: −51%
  change in total time spent in REM sleep: −41%
  change in total time spent in active wakefulness: +66%
  change in total time spent in deep (rebound) sleep: +66%
  change in total time spent in light sleep: −51%
rats, 10 mg/kg i.p.
  Duration (min) Active wake: 498.7 min
  Duration (min) Deep sleep: 181.2 min
  Duration (min) Light sleep: 182.0 min
  Duration (min) Passive wake: 35.6 min
  Duration (min) REM sleep: 53.6 min
  Duration (min) intermediate stage: 4.0 min
  ISWS/TST (%): 43.2 ± 5.7 %
  Latency (min) ISWS: 284.7 ± 56.1 min
  Latency (min) REM sleep: 440.8 ± 57.8 min
  Latency (min) dSWS: 367.3 ± 5.5 min
  REMS/TST (%): 13.0 ± 0.9%
  Shifts (number) Shift from ISWS to AW: 201.7 number
  Shifts (number) Shift from ISWS to PW: 49.0 number
  Shifts (number) Shift from REMS to AW: 50.0 number
  Shifts (number) Shift from REMS to PW: 2.2 number
  Shifts (number) Shift from dSWS to AW: 9.7 number
  Shifts (number) Shift from dSWS to PW: 11.6 number
  Total sleep time TST: 422.9 ± 19.5 min
  dSWS/TST (%): 42.9 ± 5.3 %
rats, 1, 3, 10 mg/kg
  latencies of all sleep states: significantly increased
rats, 1, 3, and 10 mg/kg
  mean duration of light sleep: not significantly modified
rats, different doses (1, 3, 10 mg/kg)
  mean duration of active wake: not modified
rats, dose-dependent, 1, 3, 10 mg/kg
  period of increased wakefulness and reduced sleep states following administration: 3 to 8 h
rats, reduced during 3-6 hours following the injection, then increased (rebound)
  effect on the time spent in deep sleep stage: biphasic effect

— patent publication US20190367448A1, “TREATMENT OF SLEEP-WAKE DISORDERS” (SK Biopharmaceuticals Co., Ltd., priority 2005, published 2019)
